Data as given in paper PMC4160109 (Clinical cancer research : an official journal of the …, 2014).

Columns and labels:
advanced solid tumors = conditions: cited from earlier work
patients = conditions: cited from earlier work
[1] = test system: patients with advanced solid malignancies; conditions: in vivo
rats = assay: Preclinical severely toxic dose in 10% of animals, rats; assay type: in vivo, rat; conditions: twice daily
[2] = Plasma PK of oral rigosertib in phase I patients; assay type: in vivo, human; conditions: for CI7F: plasma, mean ± SD
[3] = Urine PK of oral rigosertib in phase I patients; assay type: in vivo, human
dogs = assay: Preclinical severely toxic dose in 10% of animals, dogs; assay type: in vivo, dog
[4] = test system: advanced solid malignancies; assay: Phase I antitumor activity; assay type: in vivo, human; conditions: for median time on study: all patients

## CC[C@@H]1C(=O)N(C)c2cnc(Nc3ccc(C(=O)NC4CCN(C)CC4)cc3OC)nc2N1C1CCCC1 [BI-2536]
Advanced solid tumors
  phase I CBR: 32%
  phase I PR: 0%
  phase I stable disease: 32%

## Nc1cc(C(F)(F)F)c(-c2cc(N3CCOCC3)nc(N3CCOCC3)n2)cn1 [BKM120]
Advanced solid tumors
  phase I RR: 2.8%

## C=CCN(/C=C1/C(=O)O[C@H](COC)[C@@]2(C)C1=C(O)C(=O)C1=C2[C@H](OC(C)=O)C[C@]2(C)C(=O)CC[C@@H]12)CC=C [PX-866]
patients
  hyperglycemia: do not cause hyperglycemia
Advanced solid tumors
  phase I RR: 0%

## COc1ccc(Cl)c(Nc2nc3ccccc3nc2NS(=O)(=O)c2cccc(NC(=O)C(C)(C)N)c2)c1 [XL147]
patients
  hyperglycemia: do not cause hyperglycemia

## COc1cc(OC)c(/C=C/S(=O)(=O)Cc2ccc(OC)c(NCC(=O)O)c2)c(OC)c1 [rigosertib, sodium (E)-2-{2-methoxy-5-[(2′,4′ ,6′-trimethoxys-tyrylsulfonyl)methyl]phenylamino}acetate]
[1]; human
  Fatigue, treatment-related AE (patients): 1
  Hematuria, treatment-related AE (patients): 2
  Pelvic pain, treatment-related AE (patients): 1
  median time to onset of urinary symptoms: 4 weeks
  patients experiencing serious AEs: 13
  patients with doses held for toxicity: 14
  patients with doses reduced for toxicity: 13
  patients with grade 2 or 3 urinary symptoms: 15
  patients with serious AE considered possibly drug-related: 1
  time to resolution of urinary symptoms after drug discontinuation: ≤ 14 days
[1]; human, 21 days
  Patients with a DLT: 2
  patients with a DLT: 1
[1]; human, po, 21 days
  recommended phase II dose (RP2D): 560 mg
[1]
  patients with grade 3 nonhematologic toxicity: Seven
  tolerability of dose level: considered intolerable
[1]; po
  Dose-limiting toxicities: hematuria and dysuria
rats
  severely toxic dose in 10% of animals: 75 mg/kg
[2]; oral 70-700 mg twice daily
  plasma pharmacokinetics, dose dependence: linear and dose proportional
[2]; 70 mg twice daily oral, Day 1 cycle 1, n = 3
  CI7F: 71.54 ±42.87 I7h
[2]; 140 mg twice daily oral, Day 1 cycle 1, n = 4
  CI7F: 171.29 ± 155.74 I7h
[2]; 140 mg twice daily oral, Day 21 cycle 1, n = 4
  CI7F: 55.64 ± 36.62 I7h
[2]; 280 mg twice daily oral, Day 1 cycle 1, n = 5
  CI7F: 122.84 ± 123.67 I7h
[2]; 280 mg twice daily oral, Day 21 cycle 1, n = 3
  CI7F: 127.45 ±66.13 I7h
[2]; 560 mg twice daily oral, Day 1 cycle 1, n = 32
  CI7F: 93.28 ± 58.24 I7h
[2]; 560 mg twice daily oral, Day 21 cycle 1, n = 24
  CI7F: 116.33 ±56.32 I7h
[2]; 700 mg twice daily oral, Day 1 cycle 1, n = 7
  CI7F: 64.62 ± 34.70 I7h
[2]; 700 mg twice daily oral, Day 21 cycle 1, n = 2
  CI7F: 149.9 ±51.79 I7h
[3]; nonsymptomatic patients, mean (SD 2.8)
  24-hour urine excretion: 18.7 mg
[3]; patients with urinary symptoms, mean (SD 7.9)
  24-hour urine excretion: 16.6 mg
dogs; 60 kg human
  human equivalent of severely toxic dose in 10% of dogs and rats: 12.2 mg/kg
dogs; 60 kg human with a safety factor of 10
  human equivalent of severely toxic dose in 10% of dogs and rats: 73 mg
dogs; dogs, twice daily
  severely toxic dose in 10% of animals: 75 mg/kg
[4]; 2/46 evaluable patients, all dose levels
  overall response rate (RR): 4.3%
[4]; 8 patients with stable disease for 12 or more weeks, range
  duration of stable disease: 12–36 weeks
[4]; 10/46 evaluable patients, stable disease ≥ 12 weeks
  clinical benefit rate (CBR = CR + PR + stable disease): 21.7%
[4]; all dose levels
  patients with stable disease for ≥ 12 weeks: 8
[4]
  median time on study: 2 cycles
[4]; range, 1–101+
  median time on study: 6 weeks
[4]; one patient, platinum-refractory HPV-positive HNSCC, 560 mg twice daily
  best response: partial response
[4]; patient with CR, HPV-negative HNSCC, 280 mg twice daily
  time on study: ≥ 101 weeks
[4]; patient with PR, HPV-positive HNSCC, 560 mg twice daily
  time on study: 50 weeks
[4]; patient with PR, HPV-positive HNSCC, 560 mg twice daily, cycle 5
  tumor size decrease from its maximum: 40%
